Experimental data published in patent US8962596B2 (Array BioPharma Inc., priority 2010, dated 2015).

Legend:
Format in all cases: biochemical
JAK3 = target: T1, JAK3 (Homo sapiens, UniProt P52333); experiment: JAK3 Inhibition Assay (Omnia kinase fluorescence peptide substrate assay); conditions: averaged IC50 ranges; assay of Example D; 10 μM (Km app) or 1 mM ATP, 2.5 nM JAK3
T1 construct: purchased Invitrogen Corporation, Carlsbad, Calif; PV4080
T1 sequence (P52333 1-1124): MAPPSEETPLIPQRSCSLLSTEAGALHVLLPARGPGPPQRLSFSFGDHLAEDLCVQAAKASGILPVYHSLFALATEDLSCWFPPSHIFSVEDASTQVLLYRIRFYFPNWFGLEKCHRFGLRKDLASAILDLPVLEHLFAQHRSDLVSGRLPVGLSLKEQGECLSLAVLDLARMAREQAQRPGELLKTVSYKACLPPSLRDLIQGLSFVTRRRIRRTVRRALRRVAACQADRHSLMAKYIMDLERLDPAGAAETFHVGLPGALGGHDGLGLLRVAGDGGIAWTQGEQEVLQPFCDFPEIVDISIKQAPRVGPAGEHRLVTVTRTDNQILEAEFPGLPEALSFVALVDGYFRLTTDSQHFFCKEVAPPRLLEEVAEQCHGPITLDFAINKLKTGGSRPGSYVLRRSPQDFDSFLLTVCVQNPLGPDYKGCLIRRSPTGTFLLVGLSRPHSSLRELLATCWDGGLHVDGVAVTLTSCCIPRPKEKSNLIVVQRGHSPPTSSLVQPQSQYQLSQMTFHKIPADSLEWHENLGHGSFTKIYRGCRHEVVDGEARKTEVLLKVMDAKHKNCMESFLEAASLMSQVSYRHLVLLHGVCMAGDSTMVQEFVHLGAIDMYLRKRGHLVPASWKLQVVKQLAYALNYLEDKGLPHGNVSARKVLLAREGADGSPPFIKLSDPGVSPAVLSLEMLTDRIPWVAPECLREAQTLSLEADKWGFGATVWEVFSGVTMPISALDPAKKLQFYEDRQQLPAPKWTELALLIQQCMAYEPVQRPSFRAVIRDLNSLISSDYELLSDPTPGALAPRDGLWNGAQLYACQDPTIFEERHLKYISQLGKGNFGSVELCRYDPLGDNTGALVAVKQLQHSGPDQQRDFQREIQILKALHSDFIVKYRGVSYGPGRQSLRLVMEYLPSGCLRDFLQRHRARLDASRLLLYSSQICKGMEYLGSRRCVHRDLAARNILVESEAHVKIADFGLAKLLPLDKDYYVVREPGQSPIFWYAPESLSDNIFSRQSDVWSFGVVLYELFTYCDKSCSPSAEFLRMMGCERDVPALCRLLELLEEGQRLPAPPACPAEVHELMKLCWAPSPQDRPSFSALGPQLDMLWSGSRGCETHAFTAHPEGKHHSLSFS
Summary of the method: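 Kinase at 2.5 nM with 10 µM Omnia Y7 peptide and 10 µM (Km app) or 1 mM ATP in 25 mM HEPES pH 7.4, 10 mM MgCl2, 1 mM DTT, 0.01% Triton X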

Human Tyk2 kinase domain = target: T2, Human Tyk2 kinase domain (Homo sapiens, UniProt P29597); experiment: Tyk2 Inhibition Assay (Omnia kinase fluorescence peptide substrate assay); conditions: averaged IC50 ranges; assay of Example A; 10 μM (Km app) or 1 mM ATP, 2 nM Tyk2
T2 construct: comprising amino acids 886 to 1187 with 10 additional histidine residues; 10xHis (histidine tag) (C, cleaved yes); made in house
T2 sequence (P29597 886-1187): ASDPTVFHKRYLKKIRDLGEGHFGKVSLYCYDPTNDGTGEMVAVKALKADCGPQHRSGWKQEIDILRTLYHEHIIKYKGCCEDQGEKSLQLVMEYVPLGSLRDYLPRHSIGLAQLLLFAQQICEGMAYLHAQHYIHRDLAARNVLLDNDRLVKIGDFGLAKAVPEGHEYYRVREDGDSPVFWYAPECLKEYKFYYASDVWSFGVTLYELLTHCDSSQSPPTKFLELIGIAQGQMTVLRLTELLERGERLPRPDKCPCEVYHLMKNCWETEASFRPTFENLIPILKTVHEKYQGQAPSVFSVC
Summary of the method: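 2 nM His-tag-cleaved kinase domain (aa 886–1187) with 8 μM Omnia Y12 peptide, 10 μM (Km app) or 1 mM ATP, pH 7.4 HEPES/10 mM MgCl2, 2% DMSO. Fluorescence (ex 360/em 485 nm) every 50 s for 45 min; IC50 from 4-parameter fit of POC, top dose 10 μM.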

JAK2 = target: T3, JAK2 (Homo sapiens, UniProt O60674); experiment: JAK2 Inhibition Assay (Omnia kinase fluorescence peptide substrate assay); conditions: averaged IC50 ranges; assay of Example C; 25 μM (Km app) or 1 mM ATP, 5 nM JAK2
T3 construct: purchased Invitrogen Corporation, Carlsbad, Calif; PV4288
Summary of the method: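 5 nM JAK2 phosphorylated 10 μM Omnia Y7 peptide with ATP at 25 μM (Km app) or 1 mM, in 25 mM HEPES pH 7.4, 10 mM MgCl2, 0.01% Triton X-100, 1 mM DTT, 2% DMSO. Fluorescence (360/485 nm) was read every 50 s for 45 min. 10-point 3-fold series from 10 μM; POC versus uninhibited and background controls, 4-parameter logistic IC50.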

JAK1 = target: T4, JAK1 (Homo sapiens, UniProt P23458); experiment: JAK1 Inhibition Assay (Omnia kinase fluorescence peptide substrate assay); conditions: averaged IC50 ranges; assay of Example B; 40 μM (Km app) or 1 mM ATP, 15 nM JAK1
T4 construct: purchased Invitrogen Corporation, Carlsbad, Calif; PV4775
T4 sequence (P23458 whole entry): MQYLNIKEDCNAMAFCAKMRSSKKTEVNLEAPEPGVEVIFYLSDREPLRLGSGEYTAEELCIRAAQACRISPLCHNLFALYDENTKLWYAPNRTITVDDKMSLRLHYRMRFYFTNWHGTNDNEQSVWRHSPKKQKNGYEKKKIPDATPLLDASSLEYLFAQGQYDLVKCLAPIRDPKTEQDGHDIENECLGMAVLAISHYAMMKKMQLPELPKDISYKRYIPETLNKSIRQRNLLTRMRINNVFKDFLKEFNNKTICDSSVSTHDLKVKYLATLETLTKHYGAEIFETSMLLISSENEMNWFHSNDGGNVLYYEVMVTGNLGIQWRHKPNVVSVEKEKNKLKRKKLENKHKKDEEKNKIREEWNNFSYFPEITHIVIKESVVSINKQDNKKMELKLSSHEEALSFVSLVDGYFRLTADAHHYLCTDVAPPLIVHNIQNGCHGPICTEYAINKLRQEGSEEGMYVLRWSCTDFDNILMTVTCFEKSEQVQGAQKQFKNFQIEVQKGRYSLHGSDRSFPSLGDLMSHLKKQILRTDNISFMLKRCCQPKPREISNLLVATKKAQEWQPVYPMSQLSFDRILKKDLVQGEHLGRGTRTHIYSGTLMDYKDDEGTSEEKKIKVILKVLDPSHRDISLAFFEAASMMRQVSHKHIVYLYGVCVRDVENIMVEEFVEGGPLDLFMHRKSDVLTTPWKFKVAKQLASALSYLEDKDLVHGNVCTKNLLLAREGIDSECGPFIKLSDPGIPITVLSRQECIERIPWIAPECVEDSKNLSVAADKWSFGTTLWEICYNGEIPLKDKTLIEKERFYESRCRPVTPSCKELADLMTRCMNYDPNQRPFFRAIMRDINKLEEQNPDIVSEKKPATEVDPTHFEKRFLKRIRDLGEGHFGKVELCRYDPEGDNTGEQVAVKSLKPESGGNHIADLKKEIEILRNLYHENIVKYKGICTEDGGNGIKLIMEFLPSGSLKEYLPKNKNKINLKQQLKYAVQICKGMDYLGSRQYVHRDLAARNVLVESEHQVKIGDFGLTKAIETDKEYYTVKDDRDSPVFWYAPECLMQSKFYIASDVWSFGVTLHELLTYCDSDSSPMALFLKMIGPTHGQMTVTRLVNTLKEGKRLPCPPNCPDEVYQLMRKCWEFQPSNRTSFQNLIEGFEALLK

T3 sequence (O60674 whole entry): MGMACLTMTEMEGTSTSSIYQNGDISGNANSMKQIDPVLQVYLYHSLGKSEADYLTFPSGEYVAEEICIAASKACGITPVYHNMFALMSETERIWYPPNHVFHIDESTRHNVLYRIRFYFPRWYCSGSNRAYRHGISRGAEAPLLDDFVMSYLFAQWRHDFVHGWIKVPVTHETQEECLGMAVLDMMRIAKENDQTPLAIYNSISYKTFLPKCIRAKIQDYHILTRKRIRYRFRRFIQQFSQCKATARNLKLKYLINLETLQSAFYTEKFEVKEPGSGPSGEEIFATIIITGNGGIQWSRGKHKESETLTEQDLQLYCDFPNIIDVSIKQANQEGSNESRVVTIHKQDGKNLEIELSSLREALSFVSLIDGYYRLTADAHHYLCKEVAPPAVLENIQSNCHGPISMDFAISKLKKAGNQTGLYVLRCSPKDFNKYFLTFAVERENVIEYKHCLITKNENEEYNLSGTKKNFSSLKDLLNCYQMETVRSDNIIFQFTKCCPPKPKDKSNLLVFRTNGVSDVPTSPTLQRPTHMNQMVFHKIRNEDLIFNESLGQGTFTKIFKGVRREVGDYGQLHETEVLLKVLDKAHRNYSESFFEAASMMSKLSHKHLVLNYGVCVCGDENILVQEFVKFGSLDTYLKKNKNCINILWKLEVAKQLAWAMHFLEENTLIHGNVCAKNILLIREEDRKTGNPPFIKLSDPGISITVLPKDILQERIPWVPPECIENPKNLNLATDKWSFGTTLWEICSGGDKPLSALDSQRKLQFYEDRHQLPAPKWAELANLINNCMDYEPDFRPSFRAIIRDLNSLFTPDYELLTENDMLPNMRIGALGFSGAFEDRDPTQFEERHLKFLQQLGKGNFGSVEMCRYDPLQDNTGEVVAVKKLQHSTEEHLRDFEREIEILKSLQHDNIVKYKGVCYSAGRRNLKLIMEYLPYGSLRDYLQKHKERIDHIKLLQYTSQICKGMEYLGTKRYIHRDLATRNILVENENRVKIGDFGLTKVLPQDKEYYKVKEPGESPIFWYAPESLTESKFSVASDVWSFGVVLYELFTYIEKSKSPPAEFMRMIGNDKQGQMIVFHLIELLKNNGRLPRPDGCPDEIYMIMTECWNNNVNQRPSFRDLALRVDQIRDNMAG

| SMILES | IC50 (JAK3) [µM] | IC50 (Human Tyk2 kinase domain) [µM] | IC50 (JAK2) [µM] | IC50 (JAK1) [µM] |
| --- | --- | --- | --- | --- |
| CC(C)N1CC(CC#N)(n2cc(-c3nc(-c4cnn(C)c4)cc4nccn34)cn2)C1 [Example 82, 2-(1-isopropyl-3-(4-(7-(1-methyl-1H-pyrazol-4-yl)imidazo[1,2-c]pyrimidin-5-yl)-1H-pyrazol-1-yl)azetidin-3-yl)acetonitrile] | > 1 | 0.01 to 0.1 | 0.1 to 1 | > 1 |
| CN1CC(CC#N)(n2cc(-c3nc(-c4cnn(C)c4)cc4nccn34)cn2)C1 [Example 83, 2-(1-methyl-3-(4-(7-(1-methyl-1H-pyrazol-4-yl)imidazo[1,2-c]pyrimidin-5-yl)-1H-pyrazol-1-yl)azetidin-3-yl)acetonitrile] | > 1 | 0.01 to 0.1 | 0.1 to 1 | > 1 |
| Cn1cc(-c2cc3nccn3c(-c3cnn(C4(CC#N)CN(CC5CC5)C4)c3)n2)cn1 [Example 84, 2-(1-(cyclopropylmethyl)-3-(4-(7-(1-methyl-1H-pyrazol-4-yl)imidazo[1,2-c]pyrimidin-5-yl)-1H-pyrazol-1-yl)azetidin-3-yl)acetonitrile] | > 1 | < 0.01 | 0.01 to 0.1 | 0.1 to 1 |
| CC(C)CN1CC(CC#N)(n2cc(-c3nc(-c4cnn(C)c4)cc4nccn34)cn2)C1 [Example 85, 2-(1-isobutyl-3-(4-(7-(1-methyl-1H-pyrazol-4-yl)imidazo[1,2-c]pyrimidin-5-yl)-1H-pyrazol-1-yl)azetidin-3-yl)acetonitrile] | > 1 | 0.01 to 0.1 | 0.1 to 1 | 0.1 to 1 |
| Cn1cc(-c2cc3nccn3c(-c3cnn(C4(CC#N)CN(CCC(F)(F)F)C4)c3)n2)cn1 [Example 86, 2-(3-(4-(7-(1-methyl-1H-pyrazol-4-yl)imidazo[1,2-c]pyrimidin-5-yl)-1H-pyrazol-1-yl)-1-(3,3,3-trifluoropropyl)azetidin-3-yl)acetonitrile] | > 1 | 0.01 to 0.1 | 0.1 to 1 | 0.1 to 1 |
| Cn1cc(-c2cc3nccn3c(-c3cnn(C4(CC#N)CN(CC5CCC5)C4)c3)n2)cn1 [Example 87, 2-(1-(cyclobutylmethyl)-3-(4-(7-(1-methyl-1H-pyrazol-4-yl)imidazo[1,2-c]pyrimidin-5-yl)-1H-pyrazol-1-yl)azetidin-3-yl)acetonitrile] | > 1 | 0.01 to 0.1 | 0.1 to 1 | > 1 |
| Cn1cc(-c2cc3nccn3c(-c3cnn(C4(CC#N)CN(Cc5ccccc5)C4)c3)n2)cn1 [Example 88, 2-(1-benzyl-3-(4-(7-(1-methyl-1H-pyrazol-4-yl)imidazo[1,2-c]pyrimidin-5-yl)-1H-pyrazol-1-yl)azetidin-3-yl)acetonitrile] | > 1 | 0.1 to 1 | 0.1 to 1 | > 1 |
| Cn1cc(-c2cc3nccn3c(-c3cnn(C4(CC#N)CN(CC5CCOCC5)C4)c3)n2)cn1 [Example 89, 2-(3-(4-(7-(1-methyl-1H-pyrazol-4-yl)imidazo[1,2-c]pyrimidin-5-yl)-1H-pyrazol-1-yl)-1-((tetrahydro-2H-pyran-4-yl)methyl)azetidin-3-yl)acetonitrile] | > 1 | 0.1 to 1 | > 1 | > 1 |
| Cn1cc(-c2cc3ncc(Cl)n3c(-c3cnn(C4(CC#N)CN(CC(F)(F)F)C4)c3)n2)cn1 [Example 90, 2-(3-(4-(3-Chloro-7-(1-methyl-1H-pyrazol-4-yl)imidazo[1,2-c]pyrimidin-5-yl)-1H-pyrazol-1-yl)-1-(2,2,2-trifluoroethyl)azetidin-3-yl)acetonitrile] | 0.1 to 1 | < 0.01 | 0.01 to 0.1 | 0.1 to 1 |
| CC(C)S(=O)(=O)N1CC(CC#N)(n2cc(-c3nc(-c4cnn(C)c4)cc4nccn34)cn2)C1 [Example 91, 2-(1-(Isopropylsulfonyl)-3-(4-(7-(1-methyl-1H-pyrazol-4-yl)imidazo[1,2-c]pyrimidin-5-yl)-1H-pyrazol-1-yl)azetidin-3-yl)acetonitrile] | > 1 | 0.01 to 0.1 | 0.1 to 1 | 0.1 to 1 |
| Cn1cc(-c2cc3nccn3c(-c3cnn(C4(CC#N)CN(S(C)(=O)=O)C4)c3)n2)cn1 [Example 92, 2-(3-(4-(7-(1-methyl-1H-pyrazol-4-yl)imidazo[1,2-c]pyrimidin-5-yl)-1H-pyrazol-1-yl)-1-(methylsulfonyl)azetidin-3-yl)acetonitrile] | > 1 | < 0.01 | 0.01 to 0.1 | 0.1 to 1 |
| CCCS(=O)(=O)N1CC(CC#N)(n2cc(-c3nc(-c4cnn(C)c4)cc4nccn34)cn2)C1 [Example 93, 2-(3-(4-(7-(1-methyl-1H-pyrazol-4-yl)imidazo[1,2-c]pyrimidin-5-yl)-1H-pyrazol-1-yl)-1-(propylsulfonyl)azetidin-3-yl)acetonitrile] | > 1 | < 0.01 | 0.1 to 1 | 0.1 to 1 |
| Cn1cc(-c2cc3nccn3c(-c3cnn(C4(CC#N)CN(S(=O)(=O)C5CCCCC5)C4)c3)n2)cn1 [Example 94, 2-(1-(cyclohexylsulfonyl)-3-(4-(7-(1-methyl-1H-pyrazol-4-yl)imidazo[1,2-c]pyrimidin-5-yl)-1H-pyrazol-1-yl)azetidin-3-yl)acctonitrile] | > 1 | 0.01 to 0.1 | 0.1 to 1 | > 1 |
| Cn1cc(-c2cc3nccn3c(-c3cnn(C4(CC#N)CN(S(=O)(=O)C5CC5)C4)c3)n2)cn1 [Example 95, 2-(1-(cyclopropylsulfonyl)-3-(4-(7-(1-methyl-1H-pyrazol-4-yl)imidazo[1,2-c]pyrimidin-5-yl)-1H-pyrazol-1-yl)azetidin-3-yl)acetonitrile] | > 1 | < 0.01 | 0.01 to 0.1 | 0.01 to 0.1 |
| Cn1cc(-c2cc3nccn3c(-c3cnn(C4(CC#N)CN(S(=O)(=O)C(F)(F)F)C4)c3)n2)cn1 [Example 96, 2-(3-(4-(7-(1-Methyl-1H-pyrazol-4-yl)imidazo[1,2-c]pyrimidin-5-yl)-1H-pyrazol-1-yl)-1-(trifluoromethylsulfonyl)azetidin-3-yl)acetonitrile] | 0.1 to 1 | < 0.01 | < 0.01 | < 0.01 |
| CCS(=O)(=O)N1CC(CC#N)(n2cc(-c3nc(-c4cnn(C)c4)cc4nccn34)cn2)C1 [Example 97, 2-(1-(ethylsulfonyl)-3-(4-(7-(1-methyl-1H-pyrazol-4-yl)imidazo[1,2-c]pyrimidin-5-yl)-1H-pyrazol-1-yl)azetidin-3-yl)acetonitrile] | > 1 | < 0.01 | 0.01 to 0.1 | 0.1 to 1 |
